Molecular target: T1, human non-pancreatic sPLA2 (type IIa) (Homo sapiens, UniProt P14555)
T1 construct: Garvan Institute for Medical Research (provided, not a commercial vendor)
T1 sequence (P14555 21-144): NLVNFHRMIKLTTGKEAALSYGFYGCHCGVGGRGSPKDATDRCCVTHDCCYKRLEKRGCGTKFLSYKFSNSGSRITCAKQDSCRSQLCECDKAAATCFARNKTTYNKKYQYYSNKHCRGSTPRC
Assay: Assay for inhibition of human non-pancreatic sPLA2 (type IIa), mixed micelle colorimetric assay
Format: biochemical
Conditions: recombinant hIIa-PLA2; substrate diheptanoyl thio-phosphatidyl choline, DTNB detection; IC50 from Dixon plot extrapolation; read-out: IC50, inhibition of human secretary PLA2
From the text: Assay for Inhibition of Human Non-Pancreatic sPLA2 (type IIa)
A mixed nucelle colorimetric assay utilising a microtitreplate reader was used as described by Reynolds, L. J.; Hughes, L. L.; Dennis, E. A. “Analysis of human synovial fluid phospholipase A2 on short chain phosphatidylcholine-mixed micelles: Development of a spectrophotometric assay suitable for a microplate reader”. Anal Biochem. 1992, 204, 190-197.
Reagents were obtained commercially in the sPhospholipase A2 Assay Kit, Cayman Chemical Company MI USA. Buffer (25 mM Tris HCl at pH 7.5, 1 mg/mL BSA, 0.3 mM Triton X-100, 100 mM KCl, 10 mM CaCl2), substrate (diheptanoyl thio-phosphatidyl choline), DTNB (5,5′-dithiobis(2-nitrobenzoic acid)) and a 96 well plate were all provided. Recombinant hIIa-PLA2 was provided by the Garvan Institute for Medical Research. […] Standard inhibitor solutions were prepared from anhydrous DMSO. All samples were run in triplicate including the blank and control samples. Data was collected on a Molecular Devices Spectramax 250 Microplate Spectrophotometer using Softmax Pro Microplate Analysis Software v2.21. […] Thio-PC is processed by s-PLA2 and the free thiol produced is detected with DTNB (Ellman's Reagent). 5-Thio-2-nitrobenzoic acid is detected spectrophotometrically at […]. IC50's were determined by assaying inhibitors at a range of concentrations.

IC50 [nM] | Structure (SMILES)
383 | O=C(O)CCC(Cc1ccc(OCc2ccccc2)cc1)NC(=O)CCCCCc1ccccc1 (racemic) [Compound 86, (RS)-5-(4-Benzyloxy-phenyl)-4-(6-phenyl-hexanoylamino)-pentanoic acid]
435 | O=C(O)CCC(Cc1ccc(OCc2ccccc2)cc1)NC(=O)CCCCCCCc1ccccc1 (racemic) [Compound 87, (RS)-5-(4-Benzyloxy-phenyl)-4-(8-phenyl-octanoylamino)-pentanoic acid]
1070 | O=C(O)CCC(Cc1ccc(OCc2ccccc2)cc1)NC(=O)CCCCCCc1cccc([N+](=O)[O-])c1 (racemic) [Compound 90, (RS)-5-(4-Benzyloxy-phenyl)-4-[7-(3-nitro-phenyl)-heptanoylamino]-pentanoic acid]
454 | O=C(O)CCC(Cc1ccc(OCc2cccnc2)cc1)NC(=O)CCCCCCc1ccccc1 (racemic) [Compound 96, (RS)-4-(7-Phenyl-heptanoylamino)-5-[4-(pyridin-3-ylmethoxy)-phenyl]-pentanoic acid]
1500 | O=C(O)CCC(CCc1ccccc1)NC(=O)CCCCCCc1ccccc1 (racemic) [Compound 102, (RS)-6-Phenyl-4-(7-phenyl-heptanoylamino)-hexanoic acid]
5700 | O=C(O)CC[C@@H](Cc1cn(Cc2ccccc2)c2ccccc12)NC(=O)CCCCCCc1ccccc1 [Compound 19, (S)-5-(1-Benzyl-1H-indol-3-yl)-4-(7-phenyl-heptanoylamino)-pentanoic acid]
1700 | O=C(O)CC[C@@H](CCc1ccc(Oc2ccccc2)cc1)NC(=O)CCCCCCc1cccnc1 [Compound 107, 6-(4-Phenoxy-phenyl)-4R-(7-pyridin-3-yl-heptanoylamino)-hexanoic acid]

The remaining lines, values behind:

Structure (SMILES) | IC50 [nM]
COc1ccccc1CCCCCCC(=O)NC(CCC(=O)O)Cc1ccc(OCc2ccccc2)cc1 (racemic) [Compound 88, (RS)-5-(4-Benzyloxy-phenyl)-4-[7-(2-methoxy-phenyl)-heptanoylamino]-pentanoic acid] | 7400
CC(=O)Nc1cccc(CCCCCCC(=O)NC(CCC(=O)O)Cc2ccc(OCc3ccccc3)cc2)c1 (racemic) [Compound 89, (RS)-4-[7-(3-Acetylamino-phenyl)-heptanoylamino]-5-(4-benzyloxy-phenyl)-pentanoic acid] | 8100
O=C(O)CCC(Cc1ccc(OCc2ccccc2)cc1)NC(=O)CCCCCCc1cccnc1 (racemic) [Compound 91, (RS)-5-(4-Benzyloxy-phenyl)-4-(7-pyridin-3-yl-heptanoylamino)-pentanoic acid] | 1520
O=C(O)CCC(Cc1ccc(OCc2ccccn2)cc1)NC(=O)CCCCCCc1ccccc1 (racemic) [Compound 95, (RS)-4-(7-Phenyl-heptanoylamino)-5-[4-(pyridin-2-ylmethoxy)-phenyl]-pentanoic acid] | 428
O=C(O)CC[C@@H](Cc1cn(CCCc2ccccc2)c2ccccc12)NC(=O)CCCCCCc1ccccc1 [Compound 20, (S)-4-(7-Phenyl-heptanoylamino)-5-[1-(3-phenyl-propyl)-1H-indol-3-yl]-pentanoic acid] | 2900
O=C(O)CCC(Cc1cn(CCCc2ccccc2)cn1)NC(=O)CCCCCCc1ccccc1 (centres unmarked) [Compound 32, 4-(7-Phenyl-heptanoylamino)-5-[1-(3-phenyl-propyl)-1H-imidazol-4-yl]-pentanoic acid] | 2500
O=C(CCCCCCc1ccccc1)N[C@@H](COP(=O)(O)CCCOc1ccccc1)Cc1ccc(OCc2ccccc2)cc1 [Compound 57, (R)-(3-Phenoxy-propyl)-phosphonic acid mono-[3-(4-benzyloxy-phenyl)-2-(7-phenyl-heptanoylamino)-propyl]ester] | 656
O=C(CCCCCCc1ccccc1)NC(COP(=O)(O)CCCO)Cc1ccc(OCc2ccccc2)cc1 (centres unmarked) [Compound 62, (3-Hydroxy-propyl)-phosphonic acid mono-[3-(4-benzyloxy-phenyl)-2-(7-phenyl-heptanoylamino)-propyl]ester] | 24
O=C(CCCCCCc1ccccc1)N[C@@H](CCc1nnn[nH]1)Cc1ccc(OCc2ccccc2)cc1 [Compound 66, (S)-7-Phenyl-heptanoic acid [1-(4-benzyloxy-benzyl)-3-(1H-tetrazol-5-yl)-propyl]-amide] | 356
O=C(O)CC[C@@H](CCc1ccc(Oc2ccccc2)cc1)NC(=O)CCCCCCc1ccccc1 [Compound 106, 6-(4Phenoxy-phenyl)-4R-(7-phenyl-heptanoylamino)-hexanoic acid] | 99

Reference: patent US7253194B2, “Compounds and inhibitors of phospholipases” (The University of Queensland, priority 2000, dated 2007)
